# According to US10131652B2, “Pyrimidinyloxy benzene derivatives as herbicides” (E. I. DU PONT DE NEMOURS AND COMPANY, priority 2014, dated 2018):
# Like-named read-outs stand apart in the source and are kept apart here.
# What was measured:
# Assay in all cases: Test F pre-/postemergence plant response
# Format in all cases: in vivo
# soybean (Glycine max) = conditions: Glycine max, scale 0 to 100, read-out: Plant response rating, Soybean
# From the text: (§1) Seeds of plant species selected from corn (Zea mays), soybean (Glycine max), velvetleaf (Abutilon theophrasti), lambsquarters (Chenopodium album), wild poinsettia (Euphorbia heterophylla), palmer pigweed (Amaranthus palmeri), waterhemp (common waterhemp, Amaranthus rudis), surinam grass (Brachiaria decumbens), large (Lg) crabgrass (Digitaria sanguinalis), Brazilian crabgrass (Digitaria horizontalis), fall panicum (Panicum dichotomiflorum), giant foxtail (Setaria faberii), green foxtail (Setaria viridis), goosegrass (Eleusine indica), johnsongrass (Sorghum halepense), ragweed (common ragweed, Ambrosia elatior), barnyardgrass (Echinochloa crus-galli), sandbur (southern sandbur, Cenchrus echinatus), arrowleaf sida (Sida rhombifolia), Italian ryegrass (Lolium multiflorum), dayflower (Virginia (VA) dayflower, Commelina virginica), field bindweed (Convolvulus arvensis), cocklebur (common cocklebur, Xanthium strumarium), momingglory (Ipomoea coccinea), nightshade (eastern black nightshade, Solanum ptycanthum), kochia (Kochia scoparia), yellow nutsedge (Cyperus esculentus), and hairy beggarticks (Bidens pilosa), were planted into a silt loam soil and treated preemergence with test chemicals formulated in a non-phytotoxic solvent mixture which included a surfactant.
# (§2) At the same time, plants from these crop and weed species and also waterhemp_RES1, (ALS & Triazine resistant common waterhemp, Amaranthus rudis), and waterhemp_RES2, (ALS & HPPD resistant common waterhemp, Amaranthus rudis) were treated with postemergence applications of test chemicals formulated in the same manner. Plants ranged in height from 2 to 18 cm for postemergence treatments (1- to 4-leaf stage).
# (§3) Treated plants and controls were maintained in a greenhouse for 14 to 21 days, after which time all species were compared to controls and visually evaluated. Plant response ratings, summarized in Table F, are based on a scale of 0 to 100 where 0 is no effect and 100 is complete control. A dash (-) response means no test result.
# [1] = test system: large (Lg) crabgrass (Digitaria sanguinalis); conditions: Digitaria sanguinalis, pre-emergence, scale 0 to 100, read-out: Plant response rating, Crabgrass, Large
# From the text: as §1, §2, §3
# [2] = test system: surinam grass (Brachiaria decumbens); conditions: Urochloa decumbens, pre-emergence, scale 0 to 100, read-out: Plant response rating, Surinam Grass
# From the text: as §1, §2, §3
# [3] = test system: fall panicum (Panicum dichotomiflorum); conditions: Panicum dichotomiflorum, scale 0 to 100, read-out: Plant response rating, Panicum, Fall
# From the text: as §1, §2, §3
# [4] = test system: lambsquarters (Chenopodium album); conditions: Chenopodium album, pre-emergence, Preemergence, scale 0 to 100, read-out: Plant response rating, Lambsquarters
# From the text: as §1, §2, §3
# corn (Zea mays) = conditions: Zea mays, scale 0 to 100
# From the text: as §1, §2, §3
# [5] = test system: palmer pigweed (Amaranthus palmeri); conditions: Amaranthus palmeri, scale 0 to 100, read-out: Plant response rating, Pigweed, Palmer
# From the text: as §1, §2, §3
# [6] = test system: arrowleaf sida (Sida rhombifolia); conditions: Sida rhombifolia, scale 0 to 100, read-out: Plant response rating, Arrowleaf Sida
# From the text: as §1, §2, §3
# [7] = test system: wild poinsettia (Euphorbia heterophylla); conditions: Euphorbia heterophylla, scale 0 to 100, read-out: Plant response rating, Poinsettia, Wild
# From the text: as §1, §2, §3
# [8] = test system: Brazilian crabgrass (Digitaria horizontalis); conditions: Digitaria horizontalis, scale 0 to 100, read-out: Plant response rating, Crabgrass, Brazil
# From the text: as §1, §2, §3
# [9] = test system: green foxtail (Setaria viridis); conditions: Setaria viridis, pre-emergence, Preemergence, scale 0 to 100, read-out: Plant response rating, Foxtail, Green
# From the text: as §1, §2, §3
# [10] = test system: nightshade (eastern black nightshade, Solanum ptycanthum); conditions: Solanum, pre-emergence, scale 0 to 100, read-out: Plant response rating, Nightshade
# From the text: as §1, §2, §3
# [11] = test system: goosegrass (Eleusine indica); conditions: Eleusine indica, pre-emergence, scale 0 to 100, read-out: Plant response rating, Goosegrass
# From the text: as §1, §2, §3
# kochia (Kochia scoparia) = conditions: Bassia scoparia, scale 0 to 100, read-out: Plant response rating, Kochia; for pest or weed control at 16 g/ha: 16 g ai/ha; for pest or weed control at 31 g/ha: 31 g ai/ha; for pest or weed control at 125 g/ha: 125 g ai/ha
# From the text: as §1, §2, §3
# [12] = test system: sandbur (southern sandbur, Cenchrus echinatus); conditions: Cenchrus echinatus, scale 0 to 100, read-out: Plant response rating, Sandbur
# From the text: as §1, §2, §3
# [13] = test system: Italian ryegrass (Lolium multiflorum); conditions: Lolium multiflorum, scale 0 to 100, read-out: Plant response rating, Ryegrass, Italian; for pest or weed control at 16 g/ha: 16 g ai/ha; for pest or weed control at 31 g/ha: 31 g ai/ha; for pest or weed control at 125 g/ha: 125 g ai/ha
# From the text: as §1, §2, §3
# [14] = post-emergence, 16 g ai/ha Postemergence
# [15] = post-emergence, 31 g ai/ha Postemergence
# [16] = post-emergence, 62 g ai/ha Postemergence
# [17] = post-emergence, 125 g ai/ha Postemergence
# [18] = pre-emergence, 16 g ai/ha Preemergence
# [19] = pre-emergence, 31 g ai/ha Preemergence
# [20] = pre-emergence, 125 g ai/ha Preemergence
# [21] = pre-emergence, 62 g ai/ha Preemergence
# [22] = post-emergence, 62 g ai/ha, Postemergence
smiles,measurement,setting,value
"Fc1cccc(Oc2ncc(Br)cn2)c1-c1cc(C(F)F)no1 [Compound 145, 5-bromo-2-[2-[3-(difluoromethyl)-5-isoxazolyl]-3-fluorophenoxy]pyrimidine]",plant injury at 16 g/ha,soybean (Glycine max); [14],95%
same,plant injury at 31 g/ha,soybean (Glycine max); [15],95%
same,plant injury at 62 g/ha,soybean (Glycine max); [16],95%
same,plant injury at 125 g/ha,soybean (Glycine max); [17],95%
same,plant injury at 16 g/ha,soybean (Glycine max); [18],0%
same,plant injury at 31 g/ha,soybean (Glycine max); [19],0%
same,plant injury at 125 g/ha,soybean (Glycine max); [20],40%
same,plant injury at 62 g/ha,"soybean (Glycine max); pre-emergence, Preemergence",15%
same,pest or weed control at 16 g/ha,[1]; 16 g ai/ha Preemergence,10%
same,pest or weed control at 31 g/ha,[1]; 31 g ai/ha Preemergence,95%
same,pest or weed control at 62 g/ha,[1]; 62 g ai/ha Preemergence,98%
same,pest or weed control at 125 g/ha,[1]; 125 g ai/ha Preemergence,100%
same,pest or weed control at 16 g/ha,[2]; 16 g ai/ha Preemergence,0%
same,pest or weed control at 31 g/ha,[2]; 31 g ai/ha Preemergence,0%
same,pest or weed control at 125 g/ha,[2]; 125 g ai/ha Preemergence,25%
same,pest or weed control at 62 g/ha,[2]; Preemergence,0%
same,pest or weed control at 16 g/ha,[3]; [14],10%
same,pest or weed control at 31 g/ha,[3]; [15],10%
same,pest or weed control at 62 g/ha,[3]; [16],50%
same,pest or weed control at 125 g/ha,[3]; [17],80%
same,pest or weed control at 16 g/ha,[3]; [18],65%
same,pest or weed control at 31 g/ha,[3]; [19],80%
same,pest or weed control at 125 g/ha,[3]; [20],100%
same,pest or weed control at 62 g/ha,"[3]; pre-emergence, Preemergence",95%
same,pest or weed control at 16 g/ha,[4]; 16 g ai/ha,100%
same,pest or weed control at 31 g/ha,[4]; 31 g ai/ha,100%
same,pest or weed control at 125 g/ha,[4]; 125 g ai/ha,100%
same,pest or weed control at 62 g/ha,[4],100%
same,"Corn plant response rating (crop injury, 0 = no effect, 100 = complete kill) at 16 g/ha",corn (Zea mays); [14],5%
same,"Corn plant response rating (crop injury, 0 = no effect, 100 = complete kill) at 31 g/ha",corn (Zea mays); [15],10%
same,"Corn plant response rating (crop injury, 0 = no effect, 100 = complete kill) at 62 g/ha",corn (Zea mays); [16],20%
same,"Corn plant response rating (crop injury, 0 = no effect, 100 = complete kill) at 125 g/ha",corn (Zea mays); [17],20%
same,"Corn plant response rating (crop injury, 0 = no effect, 100 = complete kill) at 16 g/ha",corn (Zea mays); [18],0%
same,"Corn plant response rating (crop injury, 0 = no effect, 100 = complete kill) at 31 g/ha",corn (Zea mays); [19],0%
same,"Corn plant response rating (crop injury, 0 = no effect, 100 = complete kill) at 62 g/ha",corn (Zea mays); [21],40%
same,"Corn plant response rating (crop injury, 0 = no effect, 100 = complete kill) at 125 g/ha",corn (Zea mays); [20],60%
same,pest or weed control at 16 g/ha,[5]; [14],95%
same,pest or weed control at 31 g/ha,[5]; [15],100%
same,pest or weed control at 62 g/ha,[5]; [16],100%
same,pest or weed control at 125 g/ha,[5]; [17],100%
same,pest or weed control at 16 g/ha,[5]; [18],100%
same,pest or weed control at 31 g/ha,[5]; [19],100%
same,pest or weed control at 125 g/ha,[5]; [20],100%
same,pest or weed control at 62 g/ha,"[5]; pre-emergence, Preemergence",100%
same,pest or weed control at 16 g/ha,[6]; [14],95%
same,pest or weed control at 31 g/ha,[6]; [15],95%
same,pest or weed control at 62 g/ha,[6]; [16],98%
same,pest or weed control at 125 g/ha,[6]; [17],95%
same,pest or weed control at 16 g/ha,[6]; [18],65%
same,pest or weed control at 31 g/ha,[6]; [19],90%
same,pest or weed control at 62 g/ha,[6]; [21],98%
same,pest or weed control at 125 g/ha,[6]; [20],98%
same,pest or weed control at 16 g/ha,[7]; [14],70%
same,pest or weed control at 31 g/ha,[7]; [15],75%
same,pest or weed control at 62 g/ha,[7]; [16],80%
same,pest or weed control at 125 g/ha,[7]; [17],80%
same,pest or weed control at 16 g/ha,[7]; [18],0%
same,pest or weed control at 31 g/ha,[7]; [19],0%
same,pest or weed control at 125 g/ha,[7]; [20],65%
same,pest or weed control at 62 g/ha,"[7]; pre-emergence, Preemergence",65%
same,pest or weed control at 16 g/ha,[8]; [14],20%
same,pest or weed control at 31 g/ha,[8]; [15],20%
same,pest or weed control at 62 g/ha,[8]; [16],40%
same,pest or weed control at 125 g/ha,[8]; [17],50%
same,pest or weed control at 16 g/ha,[8]; [18],5%
same,pest or weed control at 31 g/ha,[8]; [19],80%
same,pest or weed control at 62 g/ha,[8]; [21],95%
same,pest or weed control at 125 g/ha,[8]; [20],100%
same,pest or weed control at 16 g/ha,[9]; 16 g ai/ha,5%
same,pest or weed control at 31 g/ha,[9]; 31 g ai/ha,40%
same,pest or weed control at 125 g/ha,[9]; 125 g ai/ha,100%
same,pest or weed control at 62 g/ha,[9],100%
same,pest or weed control at 16 g/ha,[10]; 16 g ai/ha Preemergence,90%
same,pest or weed control at 31 g/ha,[10]; 31 g ai/ha Preemergence,80%
same,pest or weed control at 125 g/ha,[10]; 125 g ai/ha Preemergence,98%
same,pest or weed control at 62 g/ha,[10]; Preemergence,98%
same,pest or weed control at 16 g/ha,[11]; 16 g ai/ha Preemergence,0%
same,pest or weed control at 31 g/ha,[11]; 31 g ai/ha Preemergence,70%
same,pest or weed control at 125 g/ha,[11]; 125 g ai/ha Preemergence,95%
same,pest or weed control at 62 g/ha,[11]; Preemergence,80%
same,pest or weed control at 16 g/ha,"kochia (Kochia scoparia); post-emergence, Postemergence",98%
same,pest or weed control at 31 g/ha,"kochia (Kochia scoparia); post-emergence, Postemergence",100%
same,pest or weed control at 62 g/ha,kochia (Kochia scoparia); [22],95%
same,pest or weed control at 125 g/ha,"kochia (Kochia scoparia); post-emergence, Postemergence",100%
same,pest or weed control at 16 g/ha,"kochia (Kochia scoparia); pre-emergence, Preemergence",75%
same,pest or weed control at 31 g/ha,"kochia (Kochia scoparia); pre-emergence, Preemergence",98%
same,pest or weed control at 125 g/ha,"kochia (Kochia scoparia); pre-emergence, Preemergence",100%
same,pest or weed control at 62 g/ha,"kochia (Kochia scoparia); pre-emergence, Preemergence",100%
same,pest or weed control at 16 g/ha,[12]; [14],5%
same,pest or weed control at 31 g/ha,[12]; [15],5%
same,pest or weed control at 62 g/ha,[12]; [16],5%
same,pest or weed control at 125 g/ha,[12]; [17],15%
same,pest or weed control at 16 g/ha,[12]; [18],0%
same,pest or weed control at 31 g/ha,[12]; [19],35%
same,pest or weed control at 125 g/ha,[12]; [20],95%
same,pest or weed control at 62 g/ha,"[12]; pre-emergence, Preemergence",25%
same,pest or weed control at 16 g/ha,"[13]; post-emergence, Postemergence",10%
same,pest or weed control at 31 g/ha,"[13]; post-emergence, Postemergence",5%
same,pest or weed control at 62 g/ha,[13]; [22],10%
same,pest or weed control at 125 g/ha,"[13]; post-emergence, Postemergence",15%
same,pest or weed control at 16 g/ha,"[13]; pre-emergence, Preemergence",25%
same,pest or weed control at 31 g/ha,"[13]; pre-emergence, Preemergence",20%
same,pest or weed control at 125 g/ha,"[13]; pre-emergence, Preemergence",90%
same,pest or weed control at 62 g/ha,"[13]; pre-emergence, Preemergence",40%
